Measurements as given in patent publication US20210371827A1, “METHOD FOR PREPARING CANCER STEM CELL SPHEROIDS” (KOREA ADVANCED INSTITUTE OF SCIENCE AND TECHNOLOGY, priority 2018, published 2021).

How the values were obtained:
Assay in all cases: Cell viability for doxorubicin (WST-1)
Format in all cases: cell-based, human
[1] = tested on: ssiCSC (SKOV3, MCF-7, Hep3B and SW480); conditions: 50 μM, 24 hours; compared to the 2D control group
Protocol: (§1) ssiCSC spheroids prepared from different kinds of cancer cells (SKOV3, MCF-7, Hep3B and SW480) were isolated using trypsin (TrypLE Express, Gibco), and the isolated cells were washed with D-PBS twice. The ssiCSC was plated on a 96-well plate (1×10^4 cells/well) and was cultured in a cell growth medium at 37° C. for 24 hours. Then, the medium was removed, and a new medium comprising various concentrations of doxorubicin was added to each well and cultured for 24 hours. Next, each well was washed with D-PBS and was replaced with a new cell growth medium of 100 μl, and then WST-1 cell proliferation reagent (Roche) of 10 μl was added and cultured for 4 hours. Then, the absorbance at 450 nm (standard wavelength, 600 nm) was measured using a microplate reader (Molecular Devices).
(§2) In addition, the drug resistance of ssiCSC for doxorubicin (DOX) known as an anticancer agent was confirmed. Specifically, ssiCSC spheroids prepared by culturing on the pV4D4 surface for 8 days were isolated to single cells, and the cell was cultured on the conventional TCP surface to a 2D single layer, and then DOX at various concentrations was treated for 24 hours. […] The SW480-ssiCSC maintained drug resistance when subcultured on the TCP surface twice, and through this, it can be seen that original cancer cells were transformed into CSC-like cells (FIG. 12c).

[2] = tested on: SKOV3-ssiCSC; conditions: various concentrations, 24 hours
Protocol: as §1, §2

[3] = tested on: SW480-ssiCSC; conditions: various concentrations, 24 hours
Protocol: as §1, §2

With `COc1cccc2c1C(=O)c1c(O)c3c(c(O)c1C2=O)C[C@@](O)(C(=O)CO)C[C@@H]3O[C@H]1C[C@H](N)[C@H](O)[C@H](C)O1` [Dox, doxorubicin] the “drug resistance (cell viability)” value [1] was “higher resistance”, the “drug resistance (cell viability)” value [2] was “complete resistance” and the “drug resistance (cell viability)” value [3] was “complete resistance”.
